According to patent US5468734A, “Prophylactic and remedial preparation for diseases attendant on hyperglycemia, and wholesome food” (Godo Shusei Co., Ltd., priority 1992, dated 1995):

Legend:
[1] = tested on: maltase (carbohydrase derived from rabbit small intestine mucous membrane); experiment: Action to inhibit the hydrolytic activity of homogenate prepared from rabbit small intestine mucous membrane: maltase inhibition; type: biochemical; conditions: for Maltase inhibition rate: substrate maltose 20 mM, pH 6.8, 37° C., 15 minutes
Protocol: (§1) (Action to inhibit the hydrolytic activity of homogenate prepared from rabbit small intestine mucous membrane to carbohydrate)
(§2) A native kind of white rabbits (weight: 3.0-3.5 kg) were sacrificed by exsanguination to take out their small intestines.
(§3) After freezing and thawing the small intestines thus taken out, they were homogenized in a 5 mM EDTA buffer (pH: 7.0) and subjected to centrifugation for 60 minutes at 60,000×g. Precipitate thus formed was collected and suspended again in a 10 mM potassium phosphate buffer (pH: 7.0), thereby obtaining a crude enzyme suspension.
(§4) Sucrose (20 mM) and maltose (20 mM) were used as substrates.
(§5) Each reaction mixture was formulated so as to contain 350 microliters of a 100 mM maleate buffer (pH: 6.8), 100 microliters of a substrate solution, 50 microliters of the crude enzyme suspension and 50 microliters of a test solution. Substances to be tested were separately dissolved in a maleate buffer (pH: 6.8) before use.
(§6) Respective reactions were conducted for 15 minutes at 37° C.

[2] = biological target: T1, sucrase (carbohydrase derived from rabbit small intestine mucous membrane) (Oryctolagus cuniculus, UniProt P07768); experiment: Action to inhibit the hydrolytic activity of homogenate prepared from rabbit small intestine mucous membrane: sucrase inhibition; type: biochemical; conditions: for inhibition at 250 µg/mL / inhibition at 500 µg/mL / inhibition at 1000 µg/mL / inhibition at 2000 µg/mL: 0.25 h, substrate sucrose 20 mM, pH 6.8, 37° C., 15 minutes, read-out: Sucrase inhibition rate; for inhibition at 250 µg/mL: 25 mg/dl; for inhibition at 500 µg/mL: 50 mg/dl; for inhibition at 1000 µg/mL: 100 mg/dl; for inhibition at 2000 µg/mL: 200 mg/dl
T1 construct: suspended again in a 10 mM potassium phosphate buffer (pH: 7.0), thereby obtaining a crude enzyme suspension; from tissue; host or cells: rabbit small intestine (title: mucous membrane), homogenate, 60,000×g precipitate
Protocol: as §1, §2, §3, §4, §5, §6

rise in blood sugar = experiment: Action to depress the rise in blood sugar after sucrose loading to mice; type: in vivo, ICR male mice; conditions: for Rise in blood sugar / action to depress the rise in blood sugar due to sucrose loading (in words): sucrose 1 g/kg; for Rise in blood sugar: average ± standard error; for action to depress the rise in blood sugar due to sucrose loading (in words): orally 25, 50 and 100 mg/kg (L-arabinose, D-xylose) or 100 mg/kg (others); for action to depress the rise in blood sugar for sucrose or starch loading (in words): summary statement
Text: (Action to depress the rise in blood sugar after carbohydrate loading)
ICR male mice (weight 30-35 g) were used in proportions of 5 mice per group.
After causing the mice to fast, sucrose or starch was orally administered in a proportion of 1 g/kg to the mice of each group, and at the same time substances to be tested were orally given to mice of their corresponding groups.
Blood was collected from the retroorbital sinus of each mouse before carbohydrate loading and upon elapsed times of 30 minutes, 60 minutes and 120 minutes after the loading to determine the concentration of glucose in the blood plasma by the glucose oxidase method.

[3] = dose 100 mg/kg oral, after 30 min.
[4] = dose 100 mg/kg oral, after 60 min.
[5] = dose 100 mg/kg oral, after 120 min.

T1 sequence (P07768 1008-1827 limits assumed): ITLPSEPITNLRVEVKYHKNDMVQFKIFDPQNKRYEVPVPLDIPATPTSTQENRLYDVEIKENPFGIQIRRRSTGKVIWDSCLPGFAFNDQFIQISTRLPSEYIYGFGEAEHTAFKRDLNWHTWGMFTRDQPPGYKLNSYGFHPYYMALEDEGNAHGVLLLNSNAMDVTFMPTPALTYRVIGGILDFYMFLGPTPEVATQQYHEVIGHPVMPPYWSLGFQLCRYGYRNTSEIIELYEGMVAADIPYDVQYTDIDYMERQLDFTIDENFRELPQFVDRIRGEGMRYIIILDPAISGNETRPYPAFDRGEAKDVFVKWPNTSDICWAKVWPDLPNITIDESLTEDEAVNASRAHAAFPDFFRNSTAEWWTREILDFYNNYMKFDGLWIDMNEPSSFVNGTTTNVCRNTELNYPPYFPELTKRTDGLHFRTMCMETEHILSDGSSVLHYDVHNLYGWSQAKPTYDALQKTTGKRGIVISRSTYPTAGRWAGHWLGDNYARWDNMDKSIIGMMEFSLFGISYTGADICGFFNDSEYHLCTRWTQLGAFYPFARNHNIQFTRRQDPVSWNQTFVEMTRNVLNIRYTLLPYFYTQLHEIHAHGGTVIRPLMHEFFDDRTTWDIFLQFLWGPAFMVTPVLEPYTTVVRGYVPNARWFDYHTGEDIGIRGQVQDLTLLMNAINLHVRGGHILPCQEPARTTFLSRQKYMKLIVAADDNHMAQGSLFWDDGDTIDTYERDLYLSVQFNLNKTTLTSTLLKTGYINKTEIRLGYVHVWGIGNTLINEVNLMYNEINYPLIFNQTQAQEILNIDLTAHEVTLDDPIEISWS
T1 sequence (P07768 2-1007 partner limits assumed): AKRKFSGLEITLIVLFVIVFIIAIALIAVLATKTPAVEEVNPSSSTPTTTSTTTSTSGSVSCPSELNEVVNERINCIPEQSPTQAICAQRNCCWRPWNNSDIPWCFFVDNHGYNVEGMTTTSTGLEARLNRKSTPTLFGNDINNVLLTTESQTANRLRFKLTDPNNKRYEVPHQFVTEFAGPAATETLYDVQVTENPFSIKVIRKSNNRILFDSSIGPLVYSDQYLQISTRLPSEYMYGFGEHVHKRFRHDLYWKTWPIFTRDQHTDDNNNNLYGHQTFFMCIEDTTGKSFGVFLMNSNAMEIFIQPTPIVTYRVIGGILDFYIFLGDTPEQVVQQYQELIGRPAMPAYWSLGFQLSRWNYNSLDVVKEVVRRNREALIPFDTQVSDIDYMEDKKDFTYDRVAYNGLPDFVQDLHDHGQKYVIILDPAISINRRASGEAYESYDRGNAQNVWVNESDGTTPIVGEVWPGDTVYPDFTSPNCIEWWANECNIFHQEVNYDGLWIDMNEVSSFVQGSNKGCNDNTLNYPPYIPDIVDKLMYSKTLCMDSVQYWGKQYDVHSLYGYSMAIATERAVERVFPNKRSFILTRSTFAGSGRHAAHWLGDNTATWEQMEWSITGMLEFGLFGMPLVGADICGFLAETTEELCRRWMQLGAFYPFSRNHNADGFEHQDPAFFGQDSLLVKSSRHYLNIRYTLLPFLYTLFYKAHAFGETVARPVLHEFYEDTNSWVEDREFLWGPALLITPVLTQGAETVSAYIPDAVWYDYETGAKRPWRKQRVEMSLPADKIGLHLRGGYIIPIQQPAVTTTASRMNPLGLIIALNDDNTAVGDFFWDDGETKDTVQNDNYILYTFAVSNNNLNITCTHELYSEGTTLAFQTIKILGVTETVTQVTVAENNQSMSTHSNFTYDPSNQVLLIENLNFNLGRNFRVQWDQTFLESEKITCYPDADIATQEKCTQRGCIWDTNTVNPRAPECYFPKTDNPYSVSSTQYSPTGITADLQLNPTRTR

Row | SMILES | maltase-inhibiting action (in words) [1] | Maltase inhibition rate ([1]; 25 mg/dl) [%] | Maltase inhibition rate ([1]; 50 mg/dl) [%] | Maltase inhibition rate ([1]; 100 mg/dl) [%] | Maltase inhibition rate ([1]; 200 mg/dl) [%] | sucrase-inhibiting action (in words) [2] | inhibition at 250 µg/mL [2] [%] | inhibition at 500 µg/mL [2] [%] | inhibition at 1000 µg/mL [2] [%] | inhibition at 2000 µg/mL [2] [%] | Rise in blood sugar (rise in blood sugar; [3]) | Rise in blood sugar (rise in blood sugar; [4]) | Rise in blood sugar (rise in blood sugar; [5]) | action to depress the rise in blood sugar due to sucrose loading (in words) (rise in blood sugar) | action to depress the rise in blood sugar for sucrose or starch loading (in words) (rise in blood sugar) | Rise in blood sugar (rise in blood sugar; dose 25 mg/kg oral, after 30 min.) | Rise in blood sugar (rise in blood sugar; dose 25 mg/kg oral, after 60 min.) | Rise in blood sugar (rise in blood sugar; dose 50 mg/kg oral, after 30 min.) | Rise in blood sugar (rise in blood sugar; dose 50 mg/kg oral, after 60 min.) | Rise in blood sugar (rise in blood sugar; dose 50 mg/kg oral, after 120 min.)
1 | O=CC[C@@H](O)[C@@H](O)[C@H](O)CO [2-Deoxy-D-galactose, 2-deoxy-D-galactose] | strong sucrase-inhibiting action and maltase-inhibiting action | 11.2 | 13.4 | 19.3 | 32.8 | strong sucrase-inhibiting action | 13.7 | 15.5 | 21.6 | 34.8 | 61.1 Δmg/dl | 50.8 Δmg/dl | 26.2 Δmg/dl | significantly depressed | effective action to depress the rise in blood sugar | – | – | – | – | –
2 | O=C[C@@H](O)[C@@H](O)[C@H](O)CO [D-Lyxose, D-lyxose] | inhibiting actions second to these | – | – | – | 22.3 | inhibiting actions second to these | – | – | – | 23.4 | 62.7 Δmg/dl | 57.0 Δmg/dl | – | significantly depressed | effective action to depress the rise in blood sugar | – | – | – | – | –
3 | O=C[C@H](O)[C@H](O)[C@H](O)CO [D-Ribose, D-ribose] | strong sucrase-inhibiting action and maltase-inhibiting action | 13.5 | 18.4 | 33.3 | 46.5 | strong sucrase-inhibiting action | 13.7 | 17.8 | 34 | 33.4 | 61.2 Δmg/dl | 48.5 Δmg/dl | – | significantly depressed | effective action to depress the rise in blood sugar | – | – | – | – | –
4 | O=C(CO)[C@H](O)[C@H](O)CO [D-Ribulose, D-ribulose] | inhibiting actions second to these | – | – | – | 20.1 | inhibiting actions second to these | – | – | – | 21.7 | 65.6 Δmg/dl | 56.3 Δmg/dl | 28.1 Δmg/dl | significantly depressed | effective action to depress the rise in blood sugar | – | – | – | – | –
5 | O=C(CO)[C@@H](O)[C@@H](O)[C@H](O)CO [D-Tagatose, D-tagatose] | strong sucrase-inhibiting action and maltase-inhibiting action | 12.5 | 17.7 | 30.3 | 33.9 | strong sucrase-inhibiting action | 8.9 | 15.7 | 30 | 36.6 | 60.7 Δmg/dl | 44.4 Δmg/dl | 26.3 Δmg/dl | significantly depressed | effective action to depress the rise in blood sugar | – | – | – | – | –
6 | O=C[C@H](O)[C@@H](O)[C@H](O)CO [D-Xylose, D-xylose] | strong sucrase-inhibiting action and maltase-inhibiting action | 29.2 | 36.4 | 44.3 | 53.1 | strong sucrase-inhibiting action | 28.5 | 35.5 | 49.5 | 59.8 | 38.2 Δmg/dl | 45.2 Δmg/dl | 23.4 Δmg/dl | depressed in dependence on the dose | effective action to depress the rise in blood sugar | 76.3 Δmg/dl | 55.4 Δmg/dl | 62.5 Δmg/dl | 47.3 Δmg/dl | 24.0 Δmg/dl
7 | O=C(CO)[C@@H](O)[C@H](O)CO [D-Xylulose, D-xylulose] | inhibiting actions second to these | – | – | – | 11.9 | inhibiting actions second to these | – | – | – | 19.9 | 67.3 Δmg/dl | 59.7 Δmg/dl | 27.5 Δmg/dl | significantly depressed | effective action to depress the rise in blood sugar | – | – | – | – | –
8 | C[C@H](O)[C@@H](O)[C@@H](O)[C@H](O)C=O [L-Fucose, L-fucose] | strong sucrase-inhibiting action and maltase-inhibiting action | 16.4 | 18.4 | 24.8 | 31.0 | strong sucrase-inhibiting action | 11.6 | 16.2 | 32.8 | 30.7 | 62.0 Δmg/dl | 44.4 Δmg/dl | 26.3 Δmg/dl | significantly depressed | effective action to depress the rise in blood sugar | – | – | – | – | –
